In ChEMBL document CHEMBL1649294, “Susceptibilities of 23 Desulfovibrio isolates from humans” (2009):
Values after ≈ are worked out from the molar mass of the structure shown.

Legend:
Assay type in all cases: functional
[1] = system: Desulfovibrio fairfieldensis; experiment: Antimicrobial activity against Desulfovibrio fairfieldensis in presence of Sulbactam by Etest method
[2] = system: Desulfovibrio desulfuricans; experiment: Antimicrobial activity against Desulfovibrio desulfuricans MB by Etest method
[3] = system: Desulfovibrio fairfieldensis; experiment: Antimicrobial activity against Desulfovibrio fairfieldensis by Etest method
Desulfovibrio sp. [4] = experiment: Antimicrobial activity against Desulfovibrio sp. in presence of Sulbactam by Etest method
[5] = system: Desulfovibrio desulfuricans; experiment: Antimicrobial activity against Desulfovibrio desulfuricans Essex 6 by Etest method
Desulfovibrio piger [6] = experiment: Antimicrobial activity against Desulfovibrio piger in presence of Sulbactam by Etest method
[7] = system: Desulfovibrio desulfuricans; experiment: Antimicrobial activity against Desulfovibrio desulfuricans MB in presence of Sulbactam by Etest method
Desulfovibrio sp. [8] = experiment: Antimicrobial activity against Desulfovibrio sp. by Etest method
[9] = system: Desulfovibrio desulfuricans; experiment: Antimicrobial activity against Desulfovibrio desulfuricans Essex 6 in presence of Sulbactam by Etest method
Desulfovibrio piger [10] = experiment: Antimicrobial activity against Desulfovibrio piger by Etest method
[11] = system: Desulfovibrio fairfieldensis; experiment: Antimicrobial activity against Desulfovibrio fairfieldensis in presence of Tazobactam by Etest method
[12] = system: Desulfovibrio desulfuricans; experiment: Antimicrobial activity against Desulfovibrio desulfuricans MB in presence of Tazobactam by Etest method
Desulfovibrio sp. [13] = experiment: Antimicrobial activity against Desulfovibrio sp. in presence of Tazobactam by Etest method
[14] = system: Desulfovibrio desulfuricans; experiment: Antimicrobial activity against Desulfovibrio desulfuricans Essex 6 in presence of Tazobactam by Etest method
Desulfovibrio piger [15] = experiment: Antimicrobial activity against Desulfovibrio piger in presence of Tazobactam by Etest method

Compound	MIC [1] [µg/mL]	MIC [2] [µg/mL]	MIC [3] [µg/mL]	MIC (Desulfovibrio sp. [4]) [µg/mL]	MIC50 (Desulfovibrio sp. [4]) [µg/mL]	MIC90 (Desulfovibrio sp. [4]) [µg/mL]	MIC [5] [µg/mL]	MIC (Desulfovibrio piger [6]) [µg/mL]	MIC [7] [µg/mL]	MIC50 (Desulfovibrio sp. [8]) [µg/mL]	MIC90 (Desulfovibrio sp. [8]) [µg/mL]	MIC [9] [µg/mL]	MIC (Desulfovibrio piger [10]) [µg/mL]	MIC (Desulfovibrio sp. [8]) [µg/mL]	MIC [11] [µg/mL]	MIC [12] [µg/mL]	MIC50 (Desulfovibrio sp. [13]) [µg/mL]	MIC90 (Desulfovibrio sp. [13]) [µg/mL]	MIC [14] [µg/mL]	MIC (Desulfovibrio piger [15]) [µg/mL]
CC1(C)S[C@@H]2[C@H](NC(=O)[C@H](N)c3ccccc3)C(=O)N2[C@H]1C(=O)O [AMPICILLIN]	4	0.19 (≈ 0.544 µM)	4 (≈ 11.4 µM)	0.06	0.38	6	0.19 (≈ 0.544 µM)	0.5	0.064	0.75 (≈ 2.15 µM)	8 (≈ 22.9 µM)	0.125	12 (≈ 34.3 µM)							
CCN1CCN(C(=O)N[C@@H](C(=O)N[C@@H]2C(=O)N3C(C(=O)O)=C(CSc4nnnn4C)CS[C@H]23)c2ccc(O)cc2)C(=O)C1=O [CEFOPERAZONE]	> 24	12 (≈ 18.6 µM)	> 256		4	> 256	> 16	1	1	> 256	> 256	> 3	12 (≈ 18.6 µM)							
CO/N=C(\C(=O)N[C@@H]1C(=O)N2C(C(=O)O)=C(COC(C)=O)CS[C@H]12)c1csc(N)n1 [CEFOTAXIME]		0.5 (≈ 1.1 µM)	> 0.047				0.047 (≈ 0.103 µM)			1.5 (≈ 3.29 µM)	> 256		1 (≈ 2.2 µM)							
CO[C@@]1(NC(=O)Cc2cccs2)C(=O)N2C(C(=O)O)=C(COC(N)=O)CS[C@@H]21 [CEFOXITIN]		> 16	> 64				> 256			> 256	> 256		16 (≈ 37.4 µM)							
CO/N=C(\C(=O)N[C@@H]1C(=O)N2C(C(=O)[O-])=C(C[n+]3cccc4c3CCC4)CS[C@H]12)c1csc(N)n1 [CEFPIROME]		0.5 (≈ 0.972 µM)	> 256				0.5 (≈ 0.972 µM)			4 (≈ 7.77 µM)	> 256		0.75 (≈ 1.46 µM)							
CC(C)(O/N=C(\C(=O)N[C@@H]1C(=O)N2C(C(=O)[O-])=C(C[n+]3ccccc3)CS[C@H]12)c1csc(N)n1)C(=O)O [CEFTAZIDIME]		2 (≈ 3.66 µM)	> 256				> 3			6 (≈ 11 µM)	> 256		3 (≈ 5.49 µM)							
CC(=O)OCC1=C(C(=O)O)N2C(=O)[C@@H](NC(=O)Cc3cccs3)[C@H]2SC1 [CEPHALOTHIN]		2 (≈ 5.04 µM)	> 256				> 3			> 256	> 256		> 96							
O=C(N[C@H](CO)[C@H](O)c1ccc([N+](=O)[O-])cc1)C(Cl)Cl [CHLORAMPHENICOL]		1.5 (≈ 4.64 µM)	3 (≈ 9.28 µM)				1.5 (≈ 4.64 µM)			4 (≈ 12.4 µM)	8 (≈ 24.8 µM)		1.5 (≈ 4.64 µM)	1.5 (≈ 4.64 µM)						

More lines, now with the values ahead:

MIC [1] [µg/mL]	MIC [2] [µg/mL]	MIC [3] [µg/mL]	MIC (Desulfovibrio sp. [4]) [µg/mL]	MIC50 (Desulfovibrio sp. [4]) [µg/mL]	MIC90 (Desulfovibrio sp. [4]) [µg/mL]	MIC [5] [µg/mL]	MIC (Desulfovibrio piger [6]) [µg/mL]	MIC [7] [µg/mL]	MIC50 (Desulfovibrio sp. [8]) [µg/mL]	MIC90 (Desulfovibrio sp. [8]) [µg/mL]	MIC [9] [µg/mL]	MIC (Desulfovibrio piger [10]) [µg/mL]	MIC (Desulfovibrio sp. [8]) [µg/mL]	MIC [11] [µg/mL]	MIC [12] [µg/mL]	MIC50 (Desulfovibrio sp. [13]) [µg/mL]	MIC90 (Desulfovibrio sp. [13]) [µg/mL]	MIC [14] [µg/mL]	MIC (Desulfovibrio piger [15]) [µg/mL]	Compound
	0.125 (≈ 0.377 µM)	> 32				0.19 (≈ 0.573 µM)			0.5 (≈ 1.51 µM)	> 32		0.125 (≈ 0.377 µM)								O=C(O)c1cn(C2CC2)c2cc(N3CCNCC3)c(F)cc2c1=O [CIPROFLOXACIN]
	0.094 (≈ 0.221 µM)	0.032 (≈ 0.0753 µM)				0.094 (≈ 0.221 µM)			0.125 (≈ 0.294 µM)	0.19 (≈ 0.447 µM)		0.016 (≈ 0.0376 µM)								CCC[C@@H]1C[C@@H](C(=O)N[C@@H]([C@H]2O[C@H](SC)[C@H](O)[C@@H](O)[C@H]2O)[C@H](C)Cl)N(C)C1 [CLINDAMYCIN]
	0.38 (≈ 0.518 µM)	0.5 (≈ 0.681 µM)				0.38 (≈ 0.518 µM)			0.5 (≈ 0.681 µM)	1.5 (≈ 2.04 µM)		0.016 (≈ 0.0218 µM)								CC[C@H]1OC(=O)[C@H](C)[C@@H](O[C@H]2C[C@@](C)(OC)[C@@H](O)[C@H](C)O2)[C@H](C)[C@@H](O[C@@H]2O[C@H](C)C[C@H](N(C)C)[C@H]2O)[C@](C)(O)C[C@@H](C)C(=O)[C@H](C)[C@@H](O)[C@]1(C)O [ERYTHROMYCIN]
	0.25	> 32				0.25			0.75	> 32		0.095								C[C@H]1COc2c(N3CCN(C)CC3)c(F)cc3c(=O)c(C(=O)O)cn1c23.C[C@H]1COc2c(N3CCN(C)CC3)c(F)cc3c(=O)c(C(=O)O)cn1c23.O [LEVOFLOXACIN]
	0.023 (≈ 0.06 µM)	2 (≈ 5.22 µM)				0.064 (≈ 0.167 µM)			0.19 (≈ 0.495 µM)	4 (≈ 10.4 µM)		0.032 (≈ 0.0834 µM)								C[C@@H](O)[C@H]1C(=O)N2C(C(=O)O)=C(S[C@@H]3CN[C@H](C(=O)N(C)C)C3)[C@H](C)[C@H]12 [MEROPENEM]
	0.016 (≈ 0.0935 µM)	0.016 (≈ 0.0935 µM)				0.064 (≈ 0.374 µM)			0.125 (≈ 0.73 µM)	0.25 (≈ 1.46 µM)		0.032 (≈ 0.187 µM)								Cc1ncc([N+](=O)[O-])n1CCO [METRONIDAZOLE]
	3 (≈ 6.56 µM)	4 (≈ 8.74 µM)				2 (≈ 4.37 µM)			6 (≈ 13.1 µM)	24 (≈ 52.5 µM)		0.19 (≈ 0.415 µM)								CN(C)c1ccc(O)c2c1C[C@H]1C[C@H]3[C@H](N(C)C)C(O)=C(C(N)=O)C(=O)[C@@]3(O)C(O)=C1C2=O [MINOCYCLINE]
	> 32	> 256				> 256			> 256	> 256		> 256		> 256	32	> 256	> 256	> 16	> 256	CCN1CCN(C(=O)N[C@@H](C(=O)N[C@@H]2C(=O)N3[C@@H]2SC(C)(C)[C@@H]3C(=O)O)c2ccccc2)C(=O)C1=O [PIPERACILLIN]
